Experiments:
[1] = target: EGFR (Human), P00533 [T790M/L858R]; conditions: baf3
[2] = target: EGFR (human), P00533 [L858R]
[3] = target: EGFR (Human), P00533 [T790M/L858R]
[4] = target: EGFR (human) (UniProt P00533)
[5] = target: EGFR (Human), P00533 [Assessment of EGFR-Del T790M Dependent Cell Proliferation in BaF3 Cells]

Measured: IC50

Chain of EGFR (Human), P00533 [Assessment of EGFR-Del T790M Dependent Cell Proliferation in BaF3 Cells] (P00533 whole entry, looked up, stated change not applied): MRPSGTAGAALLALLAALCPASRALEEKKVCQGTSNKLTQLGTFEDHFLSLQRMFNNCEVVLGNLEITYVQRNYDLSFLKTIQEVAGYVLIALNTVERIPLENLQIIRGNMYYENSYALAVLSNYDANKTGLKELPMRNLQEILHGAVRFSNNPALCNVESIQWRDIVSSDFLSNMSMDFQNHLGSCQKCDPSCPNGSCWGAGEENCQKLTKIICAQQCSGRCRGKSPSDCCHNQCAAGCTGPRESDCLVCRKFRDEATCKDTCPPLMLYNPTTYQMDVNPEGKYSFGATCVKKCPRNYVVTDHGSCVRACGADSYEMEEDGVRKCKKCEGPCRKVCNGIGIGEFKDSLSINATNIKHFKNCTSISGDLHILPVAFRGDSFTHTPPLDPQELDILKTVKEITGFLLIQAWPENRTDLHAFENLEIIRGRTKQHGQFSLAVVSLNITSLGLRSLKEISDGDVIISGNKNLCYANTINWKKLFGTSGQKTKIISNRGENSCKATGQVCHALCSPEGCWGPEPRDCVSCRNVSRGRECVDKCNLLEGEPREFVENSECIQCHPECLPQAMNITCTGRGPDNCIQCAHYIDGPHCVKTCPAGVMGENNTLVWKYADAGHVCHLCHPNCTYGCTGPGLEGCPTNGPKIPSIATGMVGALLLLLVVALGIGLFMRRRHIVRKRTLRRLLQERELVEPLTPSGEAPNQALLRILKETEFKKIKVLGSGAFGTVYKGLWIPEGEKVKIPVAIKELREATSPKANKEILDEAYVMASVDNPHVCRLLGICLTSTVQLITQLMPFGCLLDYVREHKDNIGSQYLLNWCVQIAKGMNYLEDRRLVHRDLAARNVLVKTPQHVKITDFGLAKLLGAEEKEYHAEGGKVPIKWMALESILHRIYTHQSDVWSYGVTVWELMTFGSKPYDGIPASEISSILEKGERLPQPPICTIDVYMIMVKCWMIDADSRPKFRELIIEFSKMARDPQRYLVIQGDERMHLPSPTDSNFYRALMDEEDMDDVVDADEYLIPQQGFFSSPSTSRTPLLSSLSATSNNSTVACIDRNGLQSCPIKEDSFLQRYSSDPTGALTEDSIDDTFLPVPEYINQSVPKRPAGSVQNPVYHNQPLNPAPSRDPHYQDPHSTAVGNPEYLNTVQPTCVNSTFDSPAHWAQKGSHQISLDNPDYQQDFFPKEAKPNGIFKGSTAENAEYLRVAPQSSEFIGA
Chain of EGFR (human) (P00533 whole entry, looked up): as the sequence (P00533 whole entry, looked up, stated change not applied) above
Chain of EGFR (human), P00533 [L858R] (P00533 whole entry L858R, looked up): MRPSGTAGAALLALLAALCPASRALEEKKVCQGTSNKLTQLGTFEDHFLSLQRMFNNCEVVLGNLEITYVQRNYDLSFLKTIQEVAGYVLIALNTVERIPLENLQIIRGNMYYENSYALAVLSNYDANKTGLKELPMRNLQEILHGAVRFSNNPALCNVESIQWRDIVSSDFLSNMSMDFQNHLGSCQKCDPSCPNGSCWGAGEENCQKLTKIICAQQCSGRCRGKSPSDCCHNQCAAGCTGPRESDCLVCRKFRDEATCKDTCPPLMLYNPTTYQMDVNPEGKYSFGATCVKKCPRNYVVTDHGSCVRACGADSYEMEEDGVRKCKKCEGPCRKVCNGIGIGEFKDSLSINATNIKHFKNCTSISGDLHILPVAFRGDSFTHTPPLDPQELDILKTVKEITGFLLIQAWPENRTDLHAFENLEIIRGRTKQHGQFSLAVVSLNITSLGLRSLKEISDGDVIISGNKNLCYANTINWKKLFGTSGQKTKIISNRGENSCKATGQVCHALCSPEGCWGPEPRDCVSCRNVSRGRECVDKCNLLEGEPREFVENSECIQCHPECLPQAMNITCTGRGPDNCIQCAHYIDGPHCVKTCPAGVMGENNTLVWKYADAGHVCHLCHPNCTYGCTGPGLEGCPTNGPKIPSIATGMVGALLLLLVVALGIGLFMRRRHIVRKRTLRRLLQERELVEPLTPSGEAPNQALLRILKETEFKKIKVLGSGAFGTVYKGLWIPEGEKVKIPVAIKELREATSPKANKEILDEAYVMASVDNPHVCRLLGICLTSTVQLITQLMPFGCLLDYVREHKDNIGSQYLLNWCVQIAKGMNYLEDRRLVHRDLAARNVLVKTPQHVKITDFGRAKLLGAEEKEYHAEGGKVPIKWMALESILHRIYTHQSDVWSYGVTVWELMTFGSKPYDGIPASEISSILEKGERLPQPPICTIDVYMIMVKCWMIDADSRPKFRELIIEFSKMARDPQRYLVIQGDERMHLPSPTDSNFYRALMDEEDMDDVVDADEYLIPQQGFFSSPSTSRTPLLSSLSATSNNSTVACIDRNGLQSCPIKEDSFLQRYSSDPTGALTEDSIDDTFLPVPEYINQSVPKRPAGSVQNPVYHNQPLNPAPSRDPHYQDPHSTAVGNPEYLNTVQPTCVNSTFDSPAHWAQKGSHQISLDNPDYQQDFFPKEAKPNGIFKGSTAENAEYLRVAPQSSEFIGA
Chain of EGFR (Human), P00533 [T790M/L858R] (P00533 whole entry T790M/L858R, looked up): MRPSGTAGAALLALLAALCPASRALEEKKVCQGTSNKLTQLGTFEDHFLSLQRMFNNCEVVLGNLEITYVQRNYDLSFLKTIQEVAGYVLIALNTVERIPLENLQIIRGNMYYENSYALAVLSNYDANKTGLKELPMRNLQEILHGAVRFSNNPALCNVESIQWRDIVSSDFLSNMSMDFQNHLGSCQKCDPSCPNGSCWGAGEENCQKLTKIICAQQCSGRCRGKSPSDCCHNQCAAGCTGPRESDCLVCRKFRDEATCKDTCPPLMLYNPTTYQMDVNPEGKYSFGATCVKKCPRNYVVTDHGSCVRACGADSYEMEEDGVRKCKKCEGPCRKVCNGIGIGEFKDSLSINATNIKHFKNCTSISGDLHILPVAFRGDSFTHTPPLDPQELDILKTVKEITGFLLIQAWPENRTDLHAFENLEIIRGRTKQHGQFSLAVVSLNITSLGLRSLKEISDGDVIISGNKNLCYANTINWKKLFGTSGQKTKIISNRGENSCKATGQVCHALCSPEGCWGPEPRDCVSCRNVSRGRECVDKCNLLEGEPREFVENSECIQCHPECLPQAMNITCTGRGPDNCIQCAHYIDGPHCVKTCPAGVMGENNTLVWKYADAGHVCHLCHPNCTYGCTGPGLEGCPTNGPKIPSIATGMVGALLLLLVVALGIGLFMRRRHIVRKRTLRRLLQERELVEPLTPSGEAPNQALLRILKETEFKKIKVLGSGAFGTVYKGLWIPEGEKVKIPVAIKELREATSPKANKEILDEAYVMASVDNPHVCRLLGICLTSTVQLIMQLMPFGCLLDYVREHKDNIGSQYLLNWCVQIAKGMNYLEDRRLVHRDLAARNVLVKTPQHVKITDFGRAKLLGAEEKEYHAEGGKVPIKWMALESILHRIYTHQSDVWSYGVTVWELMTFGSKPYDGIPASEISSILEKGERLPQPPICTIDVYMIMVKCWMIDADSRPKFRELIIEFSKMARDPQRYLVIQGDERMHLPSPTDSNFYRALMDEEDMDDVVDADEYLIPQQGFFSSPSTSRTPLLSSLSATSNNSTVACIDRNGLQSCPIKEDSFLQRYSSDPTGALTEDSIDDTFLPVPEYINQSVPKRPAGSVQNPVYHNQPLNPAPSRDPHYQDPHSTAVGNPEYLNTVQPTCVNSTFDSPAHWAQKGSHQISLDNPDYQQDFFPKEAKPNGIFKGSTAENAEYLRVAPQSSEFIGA

C=C(CN1CCN(CCO)CC1)C(=O)Nc1ccc(OC)c(Nc2ncc(Cl)c(Nc3ccccc3P(C)(C)=O)n2)c1
< 50 nM: [1] | [2] | [3] | [4] | [5]

COc1cc(F)c(NC(=O)C#CCN2CCCC2)cc1Nc1ncc(Cl)c(Nc2ccccc2P(C)(C)=O)n1
< 50 nM: [1] | [2] | [3] | [4] | [5]

C=CC(=O)Nc1cc(Nc2ncc(Cl)c(Nc3ccccc3P(C)(C)=O)n2)c(OC)cc1N1CCC(N2CCOCC2)CC1
< 50 nM: [1] | [2] | [3] | [4] | [5]

COCC#CC(=O)Nc1ccc(OC)c(Nc2ncc(Cl)c(Nc3ccccc3P(C)(C)=O)n2)c1
< 50 nM: [1] | [2] | [3] | [4] | [5]

C=C(CN1CCCCC1)C(=O)Nc1ccc(OC)c(Nc2ncc(Cl)c(Nc3ccccc3P(C)(C)=O)n2)c1
< 50 nM: [1] | [2] | [3] | [4] | [5]

C=CC(=O)Nc1cc(Nc2ncc(Cl)c(Nc3ccccc3P(C)(C)=O)n2)c(OC)cc1C#CCCN(C)C
< 50 nM: [1] | [2] | [3] | [4] | [5]

C=C(CN1CCC(N2CCN(C)CC2)CC1)C(=O)Nc1ccc(OC)c(Nc2ncc(Cl)c(Nc3ccccc3P(C)(C)=O)n2)c1
< 50 nM: [1] | [2] | [3] | [4] | [5]

COCC#CC(=O)Nc1cc(Nc2ncc(Cl)c(Nc3ccccc3P(C)(C)=O)n2)c(OC)cc1N1CCOCC1
< 50 nM: [1] | [2] | [3] | [4] | [5]

Reference: the Kinase Knowledgebase extract (Sharma et al. 2016)
